Assay results from patent US8394832B2, “Methods and compositions using immunomodulatory compounds for the treatment of immunodeficiency disorders” (Celgene Corporation, priority 2004, dated 2013).

Experiments:
IgE synthesis = test: IgE ELISA of human PBMC treated with anti CD40 and IL-4 for three weeks; type: cell-based; details: 504 h, human PBMCs in presence of CD40+IL-4 for three weeks (FIGS. 11A and B), read-out: IC50 of inhibition of IgE synthesis
Description: Human PBMCs (1×10^6/ml) were treated with immunomodulatory compounds in presence of anti-CD40 (2 ug/ml) and IL-4 (40 ng/ml) for three weeks. Fifty microliter of supernatant was used for IgE ELISA, following the manufacturer's instruction. The absorbance was read by ELISA reader at OD=450 nm.
IL-4 is a unique signal for B cells to produce IgE during the immunoglobulin class switch. To assess whether immunomodulatory compounds can regulated IgE synthesis, 1,3-dioxo-(2,6-dioxopiperidin-3-yl)-4-aminoisoindoline or 1-oxo-(2,6-dioxopiperidin-3-yl)-4-aminoisoindoline was incubated with human PBMCs in presence of CD40+IL-4 for three weeks. […] (FIGS. 11A and B).
Treatment of PBMC: 200 μl of 1×10^6/ml human PBMC were plated in 96 well plate, and the cells were pretreated with IMiDs at indicated concentrations (60, 6, 0.6, 0.06, 0.006, 0.0006 uM) for 30 minutes. Anti CD40 (#AHS4002, Biosource, 2 μg/ml) and IL-4 (#200-04, Pepro Tech, 40 ng/ml) were added to each well. Human PBMC in presence of IMiDs, anti CD40 and IL-4 were incubated for three weeks. Fifty microliters of supernatant was subjected to IgE ELISA.
IgE ELISA: The IgE ELISA Quantitation Kit was purchased from Bethyl Laboratories, Inc. (#E80-108). […] The ELISA plate was read at OD=450 nm in ELISA plate reader.

CD69 = test: FACS analysis of CD69 expression in CD19+ B cells; type: cell-based, human
Description: (§1) Human buffy coat (50 ml) was diluted with 50 ml sterile PBS (Ca^++, Mg^++ free), and mixed gently. A 25 ml aliquot of diluted buffy coat was transferred to each 50 ml centrifuge tube, and Histopaque-1077 (14 ml, #1077-1, Sigma) was gently layered into the bottom of the tube. The sample was centrifuged at 2,000 rpm for 30 min at room temperature. The interface containing mononuclear cells was transferred into 50 ml centrifuge tube, and washed once with PBS (1200 rpm, 5 min). The supernatant was discarded. Cell pellet was resuspended in Miltenyi buffer. Anti-CD19^+ microbeads were added to the suspension (10^7 cells in 80 μl of buffer, 20 μl antibody beads for 10^7 cells) and incubated for 15 min at 4° C. Cell pellet was washed once and resuspended in 1 ml Miltenyi buffer. The cell suspension was added to the magnetic column, washed with 10 ml Miltenyi buffer in the column. CD19^+ cells are released by 1 ml Miltenyi Buffer without magnetic field. CD19^+ cells were washed twice with RPMI complete medium. B cells (2×10^5) were plated in 96 well plate.
B cells were treated with 1,3-dioxo-(2,6-dioxopiperidin-3-yl)-4-aminoisoindoline (FIG. 3A) or 1-oxo-(2,6-dioxopiperidin-3-yl)-4-aminoisoindoline (FIG. 3B) in presence of anti IgM, anti CD40 and IL-4 for 3 days. The suspension of B cells was washed by PBS once, and incubated with FITC conjugated anti human CD69 for 30 min in the dark. B cells were subject to FACS analysis using flow cytometer (EPICS XL-MCL, Beckman Coulter Company).
To assess whether the effects of immunomodulatory compounds on IL-4 signaling impact on IL-4 mediated B cell activation, FACS array of immediate early expression marker CD69 expression at triplicates and six doses was examined using 1,3-dioxo-(2,6dioxopiperidin-3-yl)-4-aminoisoindoline or 1-oxo-(2,6-dioxopiperidin-3-yl)-4-aminoisoindoline. […] Thus, it is clear that immunomodulatory compounds have no impact on this process.

TNFα = TNFα ELISA of treated B cells; type: cell-based, human; details: activated CD19+ cells (FIG. 4)
Description: as §1, with “plate. […]” for “plate.”
TNFα levels in 1,3-dioxo-(2,6-dioxopiperidin-3-yl)-4-aminoisoindoline or 1-oxo-(2,6-dioxopiperidin-3-yl)-4-aminoisoindoline treated B cells were determined using TNFα ELISA.

B cells = test: B cell proliferation by BrdU ELISA; type: cell-based, human; details: 3 days (FIG. 7A)
Description: as §1
B cells were pretreated with 1,3-dioxo-(2,6-dioxopiperidin-3-yl)-4-aminoisoindoline or 1-oxo-(2,6-dioxopiperidin-3-yl)-4-aminoisoindoline at the concentrations of 60 μM, 6 μM, 0.6 μM, 0.06 μM, 0.006 μM, and 0.0006 μM for 30 min, then were added 2 μg/ml of anti-IgM, 2 μg/ml of anti CD40, 40 ng/ml IL-4, 100 ng/ml of recombinant BAFF, and/or 0.5 μg/ml of LPS. B cells were typically treated with the immunomodulatory compound alone or in presence of one or more of above stimuli for 3 days. Stimulated B cells with or without the treatment with immunomodulatory compound were used for cell proliferation assay and cytokines analysis.
The crosslinking of B cell receptor antigen (“BCR”) is the primary signal for B cell activation in response to antigen, and is critical in initializing subsequent B cell activation, proliferation, and differentiation. To assess B cell activation, B cells were treated with 1,3-dioxo-(2,6-dioxopiperidin-3-yl)-4-aminoisoindoline or 1-oxo-(2,6-dioxopiperidin-3-yl)-4-aminoisoindoline in presence of stimuli for 3 days. 25 μl BrdU was added to 250 μl cell culture 24 hours before harvesting cells. B cells were dried at 60° C. after removal of labeling supernatant. 100 μl FixDenat solution was added to fix cells for 30 min at room temperature. FixDenat solution was removed by tapping plate, then 100 μl anti-BrdU-POD was added each well for 90 min, at room temperature, and the plate was washed three 3 times. 100 μl of substrate was added to plate for 10 min, then 100 μl stop solution was added. Absorbance was measured by using an ELISA microplate reader (Molecular Devices) at OD 450 nm. […]

[1] = cited from earlier work; for hygroscopicity: crystalline polymorphic form; for interconversion of the polymorphic form: solvent system, humidity or heating

**Q.** Which IC50 (IgE synthesis) does the source give for `Nc1cccc2c1CN(C1CCC(=O)NC1=O)C2=O` (stereo not shown) [1-oxo-(2,6-dioxopiperidin-3-yl)-4-aminoisoindoline] here?
**A.** 100 to 300 nM

**Q.** And the CD69 expression (CD69; CD19+ B cells treated with anti human IgM, anti human CD40 and IL-4, 3 days (FIGS. 3A, 3B))?
**A.** dose-dependently enhanced

**Q.** And the CD69 expression (CD69; IL-4 stimulated CD19+ B cells, triplicates, six doses (FIGS. 10A and B))?
**A.** neither immunomodulatory compound inhibited

**Q.** And the “TNFα production in B cells” value (TNFα)?
**A.** dose dependently enhance

**Q.** And the B cell proliferation (B cells; combined with IgM (anti-IgM))?
**A.** enhance

**Q.** And the “effect on B cell activation/proliferation” value (B cells; compound alone)?
**A.** minimal effect

**Q.** With `Nc1cccc2c1CN(C1CCC(=O)NC1=O)C2=O` (stereo not shown) [Form A, 3-(4-amino-1-oxo-1,3 dihydro-isoindol-2-yl)-piperidene-2,6-dione] as the compound, how does the “relative stability of the polymorphic form” value ([1]; Form A among anhydrous polymorphs, Form E in aqueous solvent systems) read?
**A.** most thermodynamically stable anhydrous polymorph

**Q.** What about the hygroscopicity [1] of the same compound?
**A.** weakly or not hygroscopic

**Q.** For `Nc1cccc2c1CN(C1CCC(=O)NC1=O)C2=O` (stereo not shown) [Form B, 3-(4-amino-1-oxo-1,3 dihydro-isoindol-2-yl)-piperidene-2,6-dione], which “interconversion of the polymorphic form” value [1] is on record?
**A.** converts to Form E in aqueous solvent systems

**Q.** With `Nc1cccc2c1CN(C1CCC(=O)NC1=O)C2=O` (stereo not shown) [Form C, 3-(4-amino-1-oxo-1,3 dihydro-isoindol-2-yl)-piperidene-2,6-dione] as the compound, how does the hygroscopicity [1] read?
**A.** not hygroscopic below about 85% RH

**Q.** And the “interconversion of the polymorphic form” value [1]?
**A.** can convert to Form B at higher relative humidities

**Q.** What does the source list for `Nc1cccc2c1CN(C1CCC(=O)NC1=O)C2=O` (stereo not shown) [Form D, 3-(4-amino-1-oxo-1,3 dihydro-isoindol-2-yl)-piperidene-2,6-dione]?
**A.** hygroscopicity [1]: either weakly or not hygroscopic; interconversion of the polymorphic form [1]: will typically convert to Form B when stressed at higher relative humidities
